The values below come from patent US20240059703A1 (AMGEN INC., priority 2021, published 2024).

As a reminder, the IC50 is the midpoint of a concentration-inhibition curve.

Sequence of KRAS G12C (P01116 other isoform, or with tags, fused parts or gaps G12C/C118A): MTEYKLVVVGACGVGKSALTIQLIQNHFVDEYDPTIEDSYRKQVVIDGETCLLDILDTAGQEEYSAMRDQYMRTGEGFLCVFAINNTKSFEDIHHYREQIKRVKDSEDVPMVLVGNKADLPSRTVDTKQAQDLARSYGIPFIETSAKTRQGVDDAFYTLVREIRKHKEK

One assay addresses KRAS G12C (Homo sapiens (Human), UniProt P01116, C118A/G12C). Nature of the assay: 2 h coupled exchange assay. It is filed as biochemical. The settings on record: Avg 2 h Coupled exchange IC50, 2 h compound pre-incubation. Here is the method: The term “2 h coupled exchange assay” or “20 h coupled exchange assay” as used herein refers to the assay described in the Section entitled “BIOLOGICAL EVALUATION.”
`C=CC(=O)N1CC2(CCN(c3nc4cc(-c5ccnn5C)ccc4c(-c4ccccc4Cl)c3C#N)C2C)C1` (stereo not drawn) [Example 17-1, 2-(2-acryloyl-5-methyl-2,6-diazaspiro[3.4]octan-6-yl)-4-(2-chlorophenyl)-7-(1-methyl-1H-pyrazol-5-yl)quinoline-3-carbonitrile]: the IC50 was 293 nM.

With `C=CC(=O)N1CC2(CCN(c3nc4c(c(-c5cccc6cc(O)ccc56)c3F)COC(C)(C)C4)C2)C1` [Example 14-65, 1-(6-(3-fluoro-4-(6-hydroxy-1-naphthalenyl)-7,7-dimethyl-7,8-dihydro-5H-pyrano[4,3-b]pyridin-2-yl)-2,6-diazaspiro[3.4]octan-2-yl)-2-propen-1-one], half-maximal inhibition (IC50) required 367 nM.

For `C=CC(=O)N1CC2(CCN(c3nc4cc(-c5scnc5C)ccc4c(-c4ccccc4Cl)c3C)C2)C1` [Example 15-2, 1-(6-(4-(2-chlorophenyl)-3-methyl-7-(4-methyl-1,3-thiazol-5-yl)-2-quinolinyl)-2,6-diazaspiro[3.4]octan-2-yl)-2-propen-1-one], inhibition was half-maximal at 478 nM (IC50).

With `C=CC(=O)N1CC2(CCN(c3nc4cc(-c5ccnn5C)ccc4c(-c4ccccc4F)c3C)C2)C1` [Example 16-4, 1-(6-(4-(2-fluorophenyl)-3-methyl-7-(1-methyl-1H-pyrazol-5-yl)-2-quinolinyl)-2,6-diazaspiro[3,4]octan-2-yl)-2-propen-1-one], the IC50 came out at 644 nM.

On to `C=CC(=O)N1CC2(CCN(c3nc4c(c(-c5c(C)ccc6cnn(C)c56)c3C)COC(C)(C)C4)C2)C1` [Example 14-37, 1-(6-(4-(1,6-dimethyl-1H-indazol-7-yl)-3,7,7-trimethyl-7,8-dihydro-5H-pyrano[4,3-b]pyridin-2-yl)-2,6-diazaspiro[3.4]octan-2-yl)-2-propen-1-one], for which inhibition was half-maximal at 478 nM (IC50).

`C=CC(=O)N1CC2(CCN(c3nc4cc(-c5ccnn5C)ccc4c(-c4cccc(F)c4Cl)c3C)C2)C1` [Example 16-7, 1-(6-(4-(2-chloro-3-fluorophenyl)-3-methyl-7-(1-methyl-1H-pyrazol-5-yl)-2-quinolinyl)-2,6-diazaspiro[3.4]octan-2-yl)-2-propen-1-one] came in with an IC50 of 716 nM.

`C=CC(=O)N1CC2(CCN(c3nc4cc(-c5ccnn5C)ccc4c(-c4c(O)cccc4Cl)c3C)C2)C1` [Example 16-5, 1-(6-(4-(2-chloro-6-hydroxyphenyl)-3-methyl-7-(1-methyl-1H-pyrazol-5-yl)-2-quinolinyl)-2,6-diazaspiro[3.4]octan-2-yl)-2-propen-1-one] showed an IC50 of 390 nM.

The same assay, now with this note: Avg 2 h Coupled exchange IC50, 2 h compound pre-incubation, SOS-mediated nucleotide exchange.
Take `C=CC(=O)N1CC2(CCN(c3nc4c(c(-c5cc(Cl)cc6cnn(C)c56)c3C)COC(C)(C)C4)C2)C1` [Example 2-32, 1-(6-(4-(5-chloro-1-methyl-1H-indazol-7-yl)-3,7,7-trimethyl-7,8-dihydro-5H-pyrano[4,3-b]pyridin-2-yl)-2,6-diazaspiro[3.4]octan-2-yl)-2-propen-1-one]: the midpoint of inhibition, the IC50, lay at 808 nM.

`C=CC(=O)N1CC2(CCN(c3nc4c(c(-c5cc(O)ccc5C)c3C#N)COC(C)(C)C4)C2)C1` (single isomer, unassigned) [Example 13-127, 4-(5-hydroxy-2-methylphenyl)-7,7-dimethyl-2-(2-(2-propenoyl)-2,6-diazaspiro[3.4]octan-6-yl)-7,8-dihydro-5H-pyrano[4,3-b]pyridine-3-carbonitrile] displayed an IC50 of 153000 nM.

For `C=CC(=O)N1CC2(CCN(c3nc4c(c(-c5c(C)ccc6cnn(C)c56)c3C#N)COC(C)(C)C4)C2)C1` (single isomer, unassigned) [Example 13-59, (M)-4-(1,6-dimethyl-1H-indazol-7-yl)-7,7-dimethyl-2-(2-(2-propenoyl)-2,6-diazaspiro[3.4]octan-6-yl)-7,8-dihydro-5H-pyrano[4,3-b]pyridine-3-carbonitrile], the IC50 was found to be 32200 nM.

Molecule `C=CC(=O)N1CC2(CCN(c3nc4c(c(-c5ccc(Cl)c6cc[nH]c56)c3C#N)COC(C)(C)C4)C2)C1` [Example 12-6, 4-(4-chloro-1H-indol-7-yl)-7,7-dimethyl-2-(2-(2-propenoyl)-2,6-diazaspiro[3.4]octan-6-yl)-7,8-dihydro-5H-pyrano[4,3-b]pyridine-3-carbonitrile] yielded an IC50 of 213 nM.

With `C=CC(=O)N1CC2(CCN(c3nc4c(c(-c5c(C)ccc6cnn(C)c56)c3C#N)C[C@H]3C[C@@H]4C3(C)C)C2)C1` (single isomer, unassigned) [Example 13-105], the IC50 came to 14700 nM.

Regarding `C=CC(=O)N1CC2(CCN(c3nc4c(c(-c5cccc(F)c5O)c3C#N)C[C@H]3C[C@@H]4C3(C)C)C2)C1` [Example 2-70, (1R,9R)-6-(3-fluoro-2-hydroxyphenyl)-10,10-dimethyl-4-(2-(2-propenoyl)-2,6-diazaspiro[3.4]octan-6-yl)-3-azatricyclo[7.1.1.0^2,7]undeca-2,4,6-triene-5-carbonitrile], the IC50 is 1340 nM.

As for `C=CC(=O)N1CC2(CCN(c3nc4ccccc4c(-c4c(CC)ccc5[nH]ncc45)c3C#N)C2)C1` [Example 4, 4-(5-ethyl-1H-indazol-4-yl)-2-(2-(2-propenoyl)-2,6-diazaspiro[3.4]octan-6-yl)-3-quinolinecarbonitrile], the IC50 was 1050 nM.

The molecule `C=C(Br)C(=O)N1CC2(CCN(c3nc4c(F)cccc4c(-c4c(C)ccc5[nH]ncc45)c3C#N)C2)C1` [Example 1-51, 2-(2-(2-bromo-2-propenoyl)-2,6-diazaspiro[3.4]octan-6-yl)-8-fluoro-4-(5-methyl-1H-indazol-4-yl)-3-quinolinecarbonitrile] gave a half-maximal inhibitory concentration (IC50) of 791 nM.

In turn, `C=CC(=O)N1CC2(CCN(c3nc4c(c(-c5cc(O)c(F)c6ccccc56)c3C#N)CC(C)(C)C4)C2)C1` [Example 13-70, 4-(4-fluoro-3-hydroxy-1-naphthalenyl)-6,6-dimethyl-2-(2-(2-propenoyl)-2,6-diazaspiro[3.4]octan-6-yl)-6,7-dihydro-5H-cyclopenta[b]pyridine-3-carbonitrile] showed an IC50 of 291 nM.

In turn, `C=CC(=O)N1CC2(CCN(c3nc4ccccc4c(-c4c(C)ccc5[nH]ncc45)c3C)C2)C1` (single isomer, unassigned) [Example 2-55, (P)-1-(6-(3-methyl-4-(5-methyl-1H-indazol-4-yl)-2-quinolinyl)-2,6-diazaspiro[3.4]octan-2-yl)-2-propen-1-one] came in with an IC50 of 419 nM.

Take `C=CC(=O)N1CC2(CCN(c3nc4c(c(-c5cc(O)ccc5C)c3C#N)C[C@H]3C[C@@H]4C3(C)C)C2)C1` (single isomer, unassigned) [Example 2-68]: the IC50 turned out to be 16000 nM.

For the molecule `C=CC(=O)N1CC2(CCN(c3nc4c(c(-c5ccccc5Cl)c3C#N)CC(C)(C)C4)C2)C1` (single isomer, unassigned) [Example 13-25, (P)-4-(2-chlorophenyl)-6,6-dimethyl-2-(2-(2-propenoyl)-2,6-diazaspiro[3.4]octan-6-yl)-6,7-dihydro-5H-cyclopenta[b]pyridine-3-carbonitrile], the midpoint of inhibition, the IC50, lay at 337 nM.

Molecule `C=CC(=O)N1CC2(CCN(c3nc4c(c(-c5cccc6ccn(C)c56)c3C#N)COC(C)(C)C4)C2)C1` [Example 2-30, 7,7-dimethyl-4-(1-methyl-1H-indol-7-yl)-2-(2-(2-propenoyl)-2,6-diazaspiro[3.4]octan-6-yl)-7,8-dihydro-5H-pyrano[4,3-b]pyridine-3-carbonitrile] displayed an IC50 of 750 nM.

On to `C=CC(=O)N1CC2(CCN(c3nc4c(c(-c5c(C)ccc6cnn(C)c56)c3C#N)CO[C@@H](C)C4)C2)C1` [Example 13-142, (7)-2-(2-acryloyl-2,6-diazaspiro[3.4]octan-6-yl)-4-(1,6-dimethyl-1H-indazol-7-yl)-7-methyl-7,8-dihydro-5H-pyrano[4,3-b]pyridine-3-carbonitrile], for which the IC50 was found to be 620 nM.

`C=CC(=O)N1CC2(CCN(c3nc4c(c(-c5c(C)ccc6cn[nH]c56)c3C)CCC(C)(C)C4)C2)C1` [Example 2-23, 1-(6-(3,7,7-trimethyl-4-(6-methyl-1H-indazol-7-yl)-5,6,7,8-tetrahydro-2-quinolinyl)-2,6-diazaspiro[3.4]octan-2-yl)-2-propen-1-one]: the IC50 is 735 nM.

With `C=CC(=O)N1CC2(CCN(c3nc4c(c(-c5c(C)ccc6[nH]ncc56)c3C#N)CCC4(F)F)C2)C1` [Example 13-58, 7,7-difluoro-4-(5-methyl-1H-indazol-4-yl)-2-(2-(2-propenoyl)-2,6-diazaspiro[3.4]octan-6-yl)-6,7-dihydro-5H-cyclopenta[b]pyridine-3-carbonitrile], inhibition was half-maximal at 514 nM (IC50).

`C=CC(=O)N1CC2(CCN(c3nc4c(c(-c5ccccc5Cl)c3C#N)CC(C)(C)C4)C2)C1` (single isomer, unassigned) [Example 13-24, (M)-4-(2-chlorophenyl)-6,6-dimethyl-2-(2-(2-propenoyl)-2,6-diazaspiro[3.4]octan-6-yl)-6,7-dihydro-5H-cyclopenta[b]pyridine-3-carbonitrile] yielded an IC50 of 1800 nM.

In turn, `C=CC(=O)N1CC2(CCN(c3nc4c(c(-c5cc(O)ccc5C)c3C#N)[C@H]3CC[C@@H]4C3)C2)C1` (single isomer, unassigned) [Example 14-12] had an IC50 of 422 nM.

Regarding `C=CC(=O)N1CC2(CCN(c3nc4c(c(-c5c(C)c(Cl)cc6cnn(C)c56)c3C)CCN(C(C)C)C4)C2)C1` (single isomer, unassigned) [Example 12-23, (P)-1-(6-(4-(5-chloro-1,6-dimethyl-1H-indazol-7-yl)-3-methyl-7-(2-propanyl)-5,6,7,8-tetrahydro-1,7-naphthyridin-2-yl)-2,6-diazaspiro[3.4]octan-2-yl)-2-propen-1-one], the IC50 was determined as 18700 nM.

`C=CC(=O)N1CC2(CCN(c3nc4c(c(-c5ccc(Cl)c6ccn(C)c56)c3C#N)COC(C)(C)C4)C2)C1` [Example 12-5, 4-(4-chloro-1-methyl-1H-indol-7-yl)-7,7-dimethyl-2-(2-(2-propenoyl)-2,6-diazaspiro[3.4]octan-6-yl)-7,8-dihydro-5H-pyrano[4,3-b]pyridine-3-carbonitrile] returned a half-maximal inhibitory concentration (IC50) of 463 nM.
